Source: patent US7858825B2, “Acid and base stable diphenylmethanol derivatives and methods of use” (Colorado State University Research Foundation, priority 2007, dated 2010)

Columns and labels:
[1] = Cleavage (deprotection) of the esters 4d and of trifluoroacetate 5a; assay type: physicochemical
Description: Thus, compounds of the invention enabled a wide range of organic reactions for the generation of libraries of MraY inhibitors in solution (Scheme III). Compounds of the invention, e.g., (2,6-dicholoro-4-methoxyphenyl)(2,4-dichlorophenyl)methanol, can also be used as linkers to immobilize carboxylic acids, amines, alcohols, as well as other functional groups which can, however, be cleaved by 20% TFA.
The trifluoroacetate 5a was also stable under most acidic conditions tested in Table 1 and SiO2, but could easily be cleaved by aq NH3 in THF-MeOH within 3 h to regenerate 3d in quantitative yield (Scheme 2-2).
The ester of 3d was dissolved in 20% TFA in CH2Cl2 (0.3 M) and kept for 1 h at rt. Volatiles were evaporated in vaccuo to provide the carboxylic acid and 5a. The carboxylic acid was separated from 5d by a silica gel plug (10:1, hexanes:EtOAc to 5:1, CHCl3:MeOH) or a back-extraction procedure [solvent system: EtOAc-water (for the extraction of 5d under a basic condition (NaHCO3), CHCl3-water (for the extraction of the carboxylic acid under an acidic condition (dil. HCl)].

[2] = Stability and cleavage of linker 16 esters; assay type: physicochemical
Procedure: One of the linkers of the invention, (2-chloro-4-methoxyphenyl)(2,4-dichlorophenyl)methanol 16 was used to immobilize carboxylic acids. The linker was stable under a Boc-deprotection conditions (TsOH.H2O/THF—CH2Cl2). In addition, unlike photolytic (350 nm, 72 h) or Pd-mediated or base-catalyzed cleavage of linkers, the esters of linker 16 was efficiently be cleaved via volatile acids such as 30% TFA/CH2Cl2 or HF.pyridine within 1 h. The progress of each step was conveniently be monitored by LC-MS after the treatment of such Brønsted acids followed by evaporation of volatiles.

**Q.** What does the source list for `COc1cc(Cl)c(C(OC(=O)C(F)(F)F)c2ccc(Cl)cc2Cl)c(Cl)c1` (stereo not shown) [5a, (2,6-dichloro-4-methoxyphenyl)(2,4-dichlorophenyl)methyl 2,2,2-trifluoroacetate]?
**A.** time for cleavage to regenerate 3d ([1]; aq NH3 in THF-MeOH): ≤ 3 h; stability under acidic conditions ([1]; most acidic conditions tested in Table 1 and SiO2): stable

**Q.** Which results are given for `COc1ccc(C(O)c2ccc(Cl)cc2Cl)c(Cl)c1` (stereo not shown) [compound 16, (2-chloro-4-methoxyphenyl)(2,4-dichlorophenyl)methanol]?
**A.** time for cleavage of the esters of the linker ([2]; 30% TFA/CH2Cl2 or HF.pyridine): ≤ 1 h; stability of linker ([2]; Boc-deprotection conditions (TsOH.H2O/THF—CH2Cl2)): stable
